System: LH secretion
Assay: LH secretion promoting action (LH blood level)
Type: in vivo
Conditions: statement only, no experiment described

polypeptide of the present invention: mouse matured GALR2 ligand, amino acid sequence SEQ ID NO: 1, ligand peptide for galanin receptor (APAHRGRGGWTLNSAGYLLGPVLPVSSKADQGRKRDSALEILDLWKIIDGLPYSHSPRMT; Mouse)
LH secretion promoting action (LH blood level increasing action): specific LH blood level increasing action

Reference: patent US20040091960A1, “Novel physiologically active peptides and use thereof” (priority 2000, published 2004)
